According to ChEMBL document CHEMBL1127109, “Thiol and hydroxamic acid containing inhibitors of endothelin converting enzyme” (Bioorg Med Chem Lett, 1993):
Where a SMILES comes first, the peptide text is derived from it. The star is where a group is joined. Cbz = O=C(OCc1ccccc1)*

Target: T1, Endothelin-converting enzyme 1 (Homo sapiens) (UniProt P42892)
T1 sequence (whole entry): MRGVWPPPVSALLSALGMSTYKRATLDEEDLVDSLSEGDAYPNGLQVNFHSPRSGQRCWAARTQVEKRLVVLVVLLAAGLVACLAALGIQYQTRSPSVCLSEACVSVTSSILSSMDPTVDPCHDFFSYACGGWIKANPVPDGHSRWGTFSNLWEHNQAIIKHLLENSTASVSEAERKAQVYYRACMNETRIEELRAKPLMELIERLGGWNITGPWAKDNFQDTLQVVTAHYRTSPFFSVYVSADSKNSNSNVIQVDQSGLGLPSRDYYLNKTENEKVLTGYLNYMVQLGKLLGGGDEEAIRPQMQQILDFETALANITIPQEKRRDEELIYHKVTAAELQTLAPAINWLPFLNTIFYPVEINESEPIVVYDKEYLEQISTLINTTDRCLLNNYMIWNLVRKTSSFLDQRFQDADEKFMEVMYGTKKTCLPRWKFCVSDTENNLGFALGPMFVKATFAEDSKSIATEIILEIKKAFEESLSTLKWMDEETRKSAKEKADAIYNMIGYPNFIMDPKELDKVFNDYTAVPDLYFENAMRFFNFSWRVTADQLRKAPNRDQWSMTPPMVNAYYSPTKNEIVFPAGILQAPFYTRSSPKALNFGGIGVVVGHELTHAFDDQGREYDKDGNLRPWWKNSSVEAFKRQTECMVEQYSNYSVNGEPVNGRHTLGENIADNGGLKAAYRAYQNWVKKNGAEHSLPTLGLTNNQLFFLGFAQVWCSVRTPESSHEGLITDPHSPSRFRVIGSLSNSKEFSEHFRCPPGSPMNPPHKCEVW
Assay: Compound was tested in vitro for percent inhibition of a putative Endothelin-converting enzyme at 100 uM partially purified from rabbit lung membrane
Format: tissue-based
Conditions: Oryctolagus cuniculus, target entry is the homologue from another species

First: COC(=O)[C@H](CC(C)C)NC(=O)[C@H](CS)NC(=O)OCc1ccccc1
Second: COC(=O)[C@H](Cc1c[nH]c2ccccc12)NC(=O)[C@H](CS)NC(=O)OCc1ccccc1 (Cbz-Cys-Trp-OMe)
The inhibition of the first is lower: 89% for the first, 93% for the second.

Compared with `COC(=O)[C@H](Cc1c[nH]c2ccccc12)NC(=O)[C@H](CC(C)C)NC(=O)[C@H](CS)NC(=O)OCc1ccccc1` (Cbz-Cys-Leu-Trp-OMe), `CC(C)C[C@H](NC(=O)[C@H](CS)NC(=O)OCc1ccccc1)C(=O)N[C@@H](Cc1c[nH]c2ccccc12)C(=O)O` (Cbz-Cys-Leu-Trp-OH) is lower in inhibition: 83% for the first, 75% for the second.

Molecule `O=C(N[C@@H](CS)C(=O)N[C@@H](Cc1c[nH]c2ccccc12)C(=O)O)OCc1ccccc1` (Cbz-Cys-Trp-OH) has an inhibition of 90%.

Target: T2, Thermolysin (Bacillus thermoproteolyticus, UniProt P00800)
T2 sequence (P00800 whole entry): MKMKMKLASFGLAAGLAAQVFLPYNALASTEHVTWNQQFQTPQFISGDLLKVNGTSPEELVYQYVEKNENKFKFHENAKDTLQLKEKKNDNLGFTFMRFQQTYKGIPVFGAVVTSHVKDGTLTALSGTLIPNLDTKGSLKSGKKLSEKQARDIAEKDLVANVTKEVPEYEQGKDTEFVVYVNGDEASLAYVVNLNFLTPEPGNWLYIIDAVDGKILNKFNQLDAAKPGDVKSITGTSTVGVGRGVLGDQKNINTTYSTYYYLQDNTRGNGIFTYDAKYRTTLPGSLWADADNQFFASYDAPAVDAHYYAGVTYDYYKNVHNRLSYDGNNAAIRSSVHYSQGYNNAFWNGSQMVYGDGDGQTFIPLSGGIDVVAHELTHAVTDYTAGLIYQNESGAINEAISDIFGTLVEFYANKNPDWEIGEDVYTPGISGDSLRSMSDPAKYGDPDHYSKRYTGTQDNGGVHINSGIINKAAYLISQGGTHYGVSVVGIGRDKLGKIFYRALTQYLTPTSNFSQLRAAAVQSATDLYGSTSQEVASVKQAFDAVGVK
Assay: Compound was tested in vitro for inhibitory activity against thermolysin
Conditions: not given

For `CC(C)C[C@H](C(=O)NO)C(=O)N[C@@H](C)C(=O)NCC(N)=O`, the IC50 was 64 nM.
